Key:
[1] = biological target: cGMP-specific 3',5'-cyclic phosphodiesterase (Homo sapiens, UniProt O76074); experiment: Inhibitory activity against phosphodiesterase 5 from human platelets
[2] = biological target: T1, cGMP-dependent 3',5'-cyclic phosphodiesterase (Rattus norvegicus, UniProt Q01062); experiment: Inhibition of rat brain Phosphodiesterase 2
T1 sequence (Q01062 whole entry): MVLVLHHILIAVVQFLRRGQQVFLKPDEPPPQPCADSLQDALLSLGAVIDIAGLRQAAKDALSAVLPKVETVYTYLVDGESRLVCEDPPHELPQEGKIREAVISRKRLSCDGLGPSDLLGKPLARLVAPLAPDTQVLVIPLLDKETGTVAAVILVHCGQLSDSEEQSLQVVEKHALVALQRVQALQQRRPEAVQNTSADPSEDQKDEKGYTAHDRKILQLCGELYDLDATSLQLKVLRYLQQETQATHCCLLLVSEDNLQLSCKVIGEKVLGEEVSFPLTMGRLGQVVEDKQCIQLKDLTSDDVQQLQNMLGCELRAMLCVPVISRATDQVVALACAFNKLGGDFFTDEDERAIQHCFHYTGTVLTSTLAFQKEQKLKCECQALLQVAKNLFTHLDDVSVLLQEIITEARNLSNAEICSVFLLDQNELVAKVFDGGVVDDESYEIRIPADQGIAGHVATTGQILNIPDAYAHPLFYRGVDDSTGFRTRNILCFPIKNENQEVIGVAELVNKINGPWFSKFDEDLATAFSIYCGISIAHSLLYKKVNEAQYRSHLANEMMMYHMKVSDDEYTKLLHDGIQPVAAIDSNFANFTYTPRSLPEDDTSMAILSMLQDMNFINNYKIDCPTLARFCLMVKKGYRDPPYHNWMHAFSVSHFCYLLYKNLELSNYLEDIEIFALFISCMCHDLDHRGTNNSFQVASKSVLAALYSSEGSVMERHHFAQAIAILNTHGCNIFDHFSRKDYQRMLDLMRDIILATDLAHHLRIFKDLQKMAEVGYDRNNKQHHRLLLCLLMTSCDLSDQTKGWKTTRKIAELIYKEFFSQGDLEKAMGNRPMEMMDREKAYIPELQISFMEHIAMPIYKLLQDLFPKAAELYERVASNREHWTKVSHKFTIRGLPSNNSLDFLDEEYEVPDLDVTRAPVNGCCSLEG

[3] = biological target: Phosphodiesterase 4 (Rattus norvegicus, UniProt P14270+P14646+P14644+P54748); experiment: Inhibition of rat kidney Phosphodiesterase 4; format: protein assay
[4] = biological target: Phosphodiesterase 1 (Bos taurus, UniProt Q01061+P14100); experiment: Inhibition of bovine aorta Phosphodiesterase 1; format: protein assay
[5] = biological target: Phosphodiesterase 3 (Homo sapiens, UniProt Q14432+Q13370); experiment: Inhibition of human platelet Phosphodiesterase 3
[6] = species on record: Rattus norvegicus; experiment: In vitro inhibition of Thromboxane B2 production in A-23,187-Induced Rat Whole Blood; format: functional
[7] = species on record: Rattus norvegicus; experiment: Ex vivo inhibition of Thromboxane B2 production in A-23,187-Induced Rat Whole Blood; format: functional
[8] = biological target: T2, Thromboxane-A synthase (Homo sapiens, UniProt P24557); experiment: In vitro inhibition of Thromboxane A2 synthase in human platelet
T2 sequence (P24557 whole entry): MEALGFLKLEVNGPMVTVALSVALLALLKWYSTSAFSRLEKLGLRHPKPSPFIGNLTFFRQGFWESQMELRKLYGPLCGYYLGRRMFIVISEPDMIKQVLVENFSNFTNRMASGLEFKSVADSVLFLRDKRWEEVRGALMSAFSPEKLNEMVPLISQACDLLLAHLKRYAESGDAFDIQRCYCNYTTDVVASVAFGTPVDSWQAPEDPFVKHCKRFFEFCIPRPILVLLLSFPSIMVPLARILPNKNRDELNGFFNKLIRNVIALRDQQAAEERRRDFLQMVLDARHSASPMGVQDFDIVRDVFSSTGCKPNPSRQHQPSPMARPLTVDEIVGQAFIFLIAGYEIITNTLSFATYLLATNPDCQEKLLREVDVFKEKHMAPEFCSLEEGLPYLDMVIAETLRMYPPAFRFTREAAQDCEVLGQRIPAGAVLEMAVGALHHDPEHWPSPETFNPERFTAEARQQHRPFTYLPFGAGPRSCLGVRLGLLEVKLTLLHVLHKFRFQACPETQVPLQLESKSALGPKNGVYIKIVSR

[9] = biological target: Cyclooxygenase (Homo sapiens, UniProt P35354+P23219); experiment: Inhibitory activity against Prostaglandin G/H synthase; format: protein assay

Row | Structure (SMILES) | IC50 [1] [nM] | further results
1 | c1ccc(CCNc2nc(-c3ccccc3)nc3ccccc23)cc1 | 1900 | –
2 | Fc1ccc2c(NCc3ccccc3)nc(-c3cccnc3)nc2c1 | 480 | –
3 | c1ccc(-c2nc(NCc3ccccn3)c3ccccc3n2)cc1 | 11000 | –
4 | c1ccc(CNc2nc(-c3ccco3)nc3ccccc23)cc1 | 2500 | –
5 | COC(=O)c1cccc(Nc2nc(-c3ccccc3)nc3ccccc23)c1 | 190 | –
6 | O=[N+]([O-])c1cccc(Nc2nc(-c3ccccc3)nc3ccccc23)c1 | 420 | –
7 | c1ccc(CNc2nc(-c3ccccc3)nc3ccccc23)cc1 | 320 | IC50 [2]: 24000 nM; IC50 [3]: 8200 nM; IC50 [4]: 22500 nM; IC50 [5]: > 100000 nM
8 | OCCCCCNc1nc(-c2ccccc2)nc2ccccc12 | 15000 | –
9 | c1cncc(-c2nc(NCC3CCCO3)c3ccccc3n2)c1 (stereo not given) | 5000 | –
10 | c1ccc(CNc2nc(C3CCCCC3)nc3ccccc23)cc1 | 11000 | –
11 | c1ccc(CNc2nc(-c3cccnc3)nc3ccccc23)cc1 | 450 | IC50 [6]: > 10000 nM; ED50 [7]: > 30 mg/kg; IC50 [2]: 19000 nM; IC50 [8]: 5800 nM; IC50 [9]: 50000 nM; IC50 [3]: 9000 nM; IC50 [4]: 21000 nM; IC50 [5]: > 100000 nM
12 | c1ccc(-c2nc(NCC3CCCO3)c3ccccc3n2)cc1 (stereo not given) | 8800 | –
13 | c1cncc(-c2nc(NCC3CC3)c3ccccc3n2)c1 | 4400 | –
14 | c1cncc(-c2nc(NCc3cccs3)c3ccccc3n2)c1 | 360 | –
15 | c1ccc2c(NCC3CCCCC3)nc(-n3ccnc3)nc2c1 | 230 | –
16 | Fc1ccc2nc(-c3cccnc3)nc(NCc3ccccc3)c2c1 | 165 | –
17 | c1ccc(CCNc2nc(-c3cccnc3)nc3ccccc23)cc1 | 540 | –
18 | CN(Cc1ccccc1)c1nc(-c2ccccc2)nc2ccccc12 | 14000 | –
19 | CSc1ccc2nc(-n3ccnc3)nc(NCc3ccccc3)c2c1 | 14 | –

Row | Structure (SMILES) | IC50 [1] [nM] | further results
20 | c1coc(CNc2nc(-n3ccnc3)nc3ccccc23)c1 | 630 | –
21 | CS(=O)(=O)c1ccc2nc(-n3ccnc3)nc(NCc3ccccc3)c2c1 | 110 | –
22 | CCCOc1ccccc1-c1nc2[nH]nnc2c(=O)[nH]1 [ZAPRINAST] | – | IC50 [2]: 100000 nM; IC50 [4]: 68000 nM; IC50 [5]: 660000 nM
23 | Cc1ccc2nc(-c3cccnc3)nc(NCc3ccccc3)c2c1 | 105 | –
24 | CN1CCN(c2nc(NCc3ccccc3)c3ccccc3n2)CC1 | 22000 | –
25 | Clc1ccc2nc(-c3cccnc3)nc(NCc3ccco3)c2c1 | 120 | –
26 | c1ccc(CNc2nc(-c3cccs3)nc3ccccc23)cc1 | 720 | IC50 [2]: 21000 nM; IC50 [3]: 7600 nM; IC50 [4]: 13000 nM; IC50 [5]: > 100000 nM
27 | c1ccc(CCNc2nc(-n3ccnc3)nc3ccccc23)cc1 | 860 | –
28 | c1ccc(-c2nc(NCc3cccnc3)c3ccccc3n2)cc1 | 8600 | –
29 | c1ccc(-c2nc(Nc3cccnc3)c3ccccc3n2)cc1 | 13000 | –
30 | Clc1ccccc1Nc1nc(-c2ccccc2)nc2ccccc12 | 5500 | –
31 | COc1ccc2nc(-n3ccnc3)nc(NCc3ccccc3)c2c1.Cl.Cl | 16 | IC50 [6]: 830 nM; ED50 [7]: 2.6 mg/kg; IC50 [2]: > 3000 nM; IC50 [8]: 2500 nM; IC50 [3]: 3300 nM; IC50 [4]: 2800 nM; IC50 [5]: 2000 nM
32 | Cl.Cl.Clc1ccc2nc(-n3ccnc3)nc(NCc3ccccc3)c2c1 | – | IC50 [2]: > 3000 nM; IC50 [3]: > 3000 nM; IC50 [4]: > 3000 nM; IC50 [5]: > 3000 nM
33 | Cl.Cl.Clc1ccc2nc(-c3cccnc3)nc(NCc3ccccc3)c2c1 | 26 | IC50 [2]: > 50000 nM; IC50 [3]: > 50000 nM; IC50 [4]: > 50000 nM; IC50 [5]: > 50000 nM
34 | Clc1nc(NCc2ccccc2)c2ccccc2n1 | 4600 | –
35 | c1ccc(COc2nc(-c3ccccc3)nc3ccccc23)cc1 | 18500 | –
36 | c1ccc(Nc2nc(-c3ccco3)nc3ccccc23)cc1 | 2300 | –
37 | c1ccc(CNc2nc(-c3ccncc3)nc3ccccc23)cc1 | 310 | IC50 [6]: 1800 nM; ED50 [7]: 11 mg/kg; IC50 [2]: 17000 nM; IC50 [8]: 830 nM; IC50 [9]: 14000 nM; IC50 [3]: 7500 nM; IC50 [4]: 7000 nM; IC50 [5]: > 100000 nM
38 | Cl.Cl.O=[N+]([O-])c1ccc2nc(-c3cccnc3)nc(NCc3ccccc3)c2c1 | 10 | IC50 [2]: > 3000 nM; IC50 [3]: > 3000 nM; IC50 [4]: > 3000 nM; IC50 [5]: > 3000 nM

Row | Structure (SMILES) | IC50 [1] [nM] | further results
39 | Clc1cccc(CNc2nc(-c3ccccc3)nc3ccccc23)c1 | 800 | –
40 | c1ccc(-c2nc(NC3CCCC3)c3ccccc3n2)cc1 | 2400 | –
41 | CCOC(=O)CCCNc1nc(-c2ccccc2)nc2ccccc12 | 4300 | –
42 | COC(=O)c1ccc(Nc2nc(-c3ccccc3)nc3ccccc23)cc1 | 860 | –
43 | COc1cccc(Nc2nc(-c3ccccc3)nc3ccccc23)c1 | 760 | –
44 | Clc1cccc(Nc2nc(-c3ccccc3)nc3ccccc23)c1 | 1000 | –
45 | c1cncc(CNc2nc(-c3cccnc3)nc3ccccc23)c1 | 2800 | –
46 | CN(c1ccccc1)c1nc(-c2ccccc2)nc2ccccc12 | 20000 | –
47 | COc1ccc2nc(-n3ccnc3)nc(NCc3ccco3)c2c1 | 72 | –
48 | O=[N+]([O-])c1ccc2nc(-n3ccnc3)nc(NCc3ccccc3)c2c1 | 2.6 | –
49 | c1ccc(-c2nc(NCc3ccco3)c3ccccc3n2)cc1 | 4700 | –
50 | c1csc(CNc2nc(-n3ccnc3)nc3ccccc23)c1 | 210 | –
51 | Clc1ccc(Nc2nc(-c3ccccc3)nc3ccccc23)cc1 | 2150 | –
52 | C(=C\c1nc(NCc2ccccc2)c2ccccc2n1)/c1ccccc1 | 1300 | –
53 | Brc1ccc2nc(-n3ccnc3)nc(NCc3ccccc3)c2c1 | 2.3 | –
54 | c1ccc(Nc2nc(-c3cccs3)nc3ccccc23)cc1 | 2400 | –
55 | Clc1ccccc1CNc1nc(-c2ccccc2)nc2ccccc12 | 800 | –
56 | Clc1ccc(CNc2nc(-c3ccccc3)nc3ccccc23)cc1 | 740 | –

Source: ChEMBL document CHEMBL1128541 (J Med Chem, 1995)
